Data reported in patent publication US5594032A, “Amelioration of human erectile dysfunction by treatment with iNOS, inducers of iNOS or iNOS cDNA” (priority 1994, dated 1997).

Assays:
Male Fischer 344 rats = assay: Erectile response (maximal intracavernosal pressure) to electrical field stimulation of the cavernosal nerve; format: in vivo, rat; settings: for inhibition of the erectile response: sub-optimal dose
Protocol: Male Fischer 344 rats from three age groups designated "adult" (5-month old), "old" (20 month old), and "very old" (28-32 month old) rats, were anesthetized with an intraperitoneal injection of sodium […] (pentobarbital) at 50 mg/kg. The definition of these age groups in terms of relative aging corresponds to conventional designations for the Fisher 344 strain of rats (maximal life span approximately 34-36 months; optimum breeding activity 2.5-8 months). The adult and very old rats were retired breeders whenever possible. Animals were maintained under controlled lighting and were treated according to NIH regulations. The number of animals in each group for each individual experiment is indicated in the corresponding figure.
A transversal suprapubic skin incision (5 mmm) was done to expose the penis angle and its proximal portion. The right corpora cavernosa was then cannulated with a 27-gauge needle attached to a vinyl tubing (Bolab/bb317-85 Arizona) which was connected with an ALZET^R osmotic pump (Alza Corporation, Palo Alto, Calif.). Each pump (100 or 200 ul reservoir volume, as indicated) contained a mix of E. coli lipopolysaccharide (LPS) at 1 ug/ml, recombinant rat […] (IFN-γ) at 2,500 U/ml, recombinant human tumor necrosis factor-(TNF-α) at 2,500 U/ml, and recombinant human interleukin-1β (IL-1β) at 50 ng/ml.
The needle and the tubing were fixed to the penis peripheral tissues by Mersilene* 6-0 suture and the osmotic pump was placed subcutaneously on the rat abdomen. […] The incision was closed by layer using Dexon* Plus 4-0 suture and the success of the operation was checked all throughout the experiment by observation of a normal recovery and urinary activity. These criteria were completed by verifying the absence of peripheral hematomas or inflammation when the pump was removed. Each pump delivered the inducer mix by osmotic pressure through the catheter directly into the corpora cavernosa, either at 1 ul/hr during 3 days (pump 1003D) or at 0.5 ul/hr during 14 days (pump 2002).
At the completion of each treatment rats were anesthetized as in Example 1 and the erectile response was measured by a modification of a published procedure. Briefly, the cavernosal nerve was surgically exposed and stimulated with a square pulse stimulator connected to a platinum bipolar electrode positioned on the nerve. Through a needle inserted into the cavernosa, the intracavernosal pressure was recorded with a pressure transducer connected to a recorder that was calibrated with a manometer in order to express the response in mm of mercury. The animals were reinjected every 45 min with 35 mg/kg of ketamine for the whole duration of the experiment (about 2-3 hours).
Each rat was submitted to the following sequential treatments done in duplicate: a) electrical field stimulation (EFS) at a frequency of 15 Hz for pulses of 30 sec, separated for 5 min intervals, for the voltage response curve, at […], 2.5, 5 and 10 volts, in this order; b) EFS at 10 volts with the nitric oxide synthase (NOS) inhibitor N -nitro-L-arginine methy ester (L-NAME) at 2 mg/kg, at a single dose per animal, recording 30 min. after injection. In some animals, the systemic blood pressure was measured at the beginning of the experiment, by intrafemoral cannulation and recording as above. Means and standard deviations were determined for the intracavernosal pressure values, and the statistical significance was obtained by the paired Student's t test.

penile NOS = assay: NOS activity in penile cytosol, (3-H) L-arginine to (3-H) citrulline conversion; format: biochemical, rat; settings: cytosol of inducer-treated rats
Protocol: Six adult rats were implanted with 100 ul pumps for 3 days, and then the pumps were replaced by similar ones with fresh solution as indicated in Example 2. Three animals had the pumps containing the inducer mix and three had saline as a control. At the end of the experiment the animals were anesthetized as indicated above and the penis (including the bulb), liver, and in some animals the cerebellum were surgically removed. The penile head and skin were excised and the organs were stored under liquid nitrogen.
NOS activity was determined from tissue homogenates from two treated and two control rats, not subjected to EFS in order to avoid the interference with residual L-NAME from the in vivo experiments and EFS-induced changes in NOS activity. […] After eliminating the residual (3-H)L-arginine through the resin, (3-H) citrulline was counted in the trichloroacetic acid ether-extracted supernatant. All values were corrected by the radioactivity eluted in time zero incubations.

[1] = test system: rat penis smooth muscle cells (RPSMC); assay: Nitrite accumulation in medium of rat penis smooth muscle cell cultures (Greiss reagent); format: cell-based
Protocol: Primary cultures of RPSMC were initiated from small pieces of penile tissue excised from 3 months old Sprague Dawley rats, utilizing Dulbecco's modified Eagle medium (DMEM) with 20% fetal calf serum, at 37° C. in the presence of 5% CO2. Cells grown from the explants were then transferred to medium with 10% serum, and at the 4th to 10th passage (1:3 splits) they were utilized for the experiments, unless otherwise indicated. Alternatively, cells from the 4-8th passage stored under liquid nitrogen were used to reinitiate the cultures, and used for incubations on the following 2-4 passages. These cultures are considered to consist mainly of smooth muscle cells from the penis based on morphological and cytoimmunochemical criteria.
All experiments were conducted at 90-100% cell confluence on "Primaria" cultureware, usually 24-well plates, adding or not the inducers indicated in each experiment. When not specifically stated, the standard binary induction mix consisted of bacterial lipopolysaccharide (LPS) (10 ug/ml) and recombinant murine […] (INF-θ) (250 U/ml). Other substances to be tested were added as indicated to the serum-containing medium, and the incubation proceeded for the times indicated. The medium was always collected and stored for an indirect measurement of NO production based on the determination of its conversion into nitrites. The procedure was based on the application of the Greiss reagent, using 250 ul of the medium mixed with an equal volume of reagent. Each experimental condition was carried out in triplicate.

cNOS, iNOS = settings: cited from earlier work
[2] = supplemented with 1 or 10 ug/ml LPS, 48 hr incubation

COC(=O)[C@@H](N)CCCNC(=N)N[N+](=O)[O-] [L-NAME, N-nitro-L-arginine methyl ester]
fraction of maximal intracavernosal pressure remaining after L-NAME (Male Fischer 344 rats; adult rats treated with inducers, L-NAME 2 mg/kg, EFS 10 volts): 39%
fraction of maximal intracavernosal pressure remaining after L-NAME (Male Fischer 344 rats; adult rats without inducer treatment (separate study)): 62%
fraction of maximal intracavernosal pressure remaining after L-NAME (Male Fischer 344 rats; old rats treated with inducers, L-NAME 2 mg/kg, EFS 10 volts): 18%
fraction of maximal intracavernosal pressure remaining after L-NAME (Male Fischer 344 rats; old rats without inducer treatment (separate study)): 30%
inhibition of the erectile response (Male Fischer 344 rats; non-respondent rats after 14 days inducer treatment): normal
inhibition of the erectile response (Male Fischer 344 rats; respondent animals after 14 days inducer treatment, three age groups): over 95%
fraction of maximal intracavernosal pressure remaining after L-NAME (Male Fischer 344 rats; very old rats treated with inducers, L-NAME 2 mg/kg, EFS 10 volts): 28%
fraction of maximal intracavernosal pressure remaining after L-NAME (Male Fischer 344 rats; very old rats without inducer treatment (separate study)): 23%
inhibition of NOS activity in penile cytosol (penile NOS; 2 mM): 60-70%
inhibition at 2000 µM ([1]; Rattus norvegicus, 2 mM, RPSMC treated with standard induction mix, read-out: inhibition of nitrite release): ≤ 85%

N=C(NCCC[C@H](N)C(=O)O)N[N+](=O)[O-] [L-nitroarginine]
potency as inhibitor of cNOS relative to iNOS (cNOS, iNOS): 1000 fold

N=C(N)NN [aminoguanidine]
effect on NOS activity in penile cytosol (penile NOS; 0.3 mM): not affected
isoform preference of NOS inhibition (cNOS, iNOS; specificity varies with the cell type): preferential inhibitor for iNOS

IL-1β: recombinant human interleukin-1 β
effectiveness compared with 500 U/ml INF-θ ([1]; 5 ng/ml with 10 ug/ml LPS, 48 hr): slightly more effective

TNF-α
effect on nitrite production ([1]; up to 500 u/ml, presence or absence of LPS, 48 hr): did not have any effect

B1: INF-θ: recombinant murine interferon-θ (in vitro); recombinant rat interferon-θ (IFN-γ) in vivo (protein, UniProt P01580 23-155, looked up)
Interferon gamma: HGTVIESLESLNNYFNSSGIDVEEKSLFLDIWRNWQKDGDMKILQSQIISFYLRLFEVLKDNQAISNNISVIESHLITTFFSNSKAKKDAFMSIAKFEVNNPQVQRQAFNELIRVVHQLLPESSLRKRKRSRC
modifications: rat IFN-gamma used in vivo
nitrites in culture medium, maximum ([1]; 50 to 500 U/ml, absence of LPS, 48 hr incubation): ≤ 45 µM
induction relative to the basal level [1, 2]: ~20 fold
nitrites in culture medium [1, 2]: up to 120 uM
